How the values were obtained:
ob/ob mice [1] = test: 17 β-estradiol or testosterone treatment of hypogonadic ob/ob mice; assay type: in vivo, mouse
Source text: Nevertheless, to address this point more thoroughly the hypogonadism of the ob/ob mice was exploited. Hypogonadism normally leads to an increase in osteoclasts number and in bone resorptive activity. […] On the other hand, if the osteoclasts of the ob/ob mice were not functioning properly, correcting their hypogonadism should not affect the severity of their high bone mass phenotype. To determine which of these two possibilities was correct, 17 β-estradiol or placebo pellets (Innovative Research of America) were implanted subcutaneously in 2-month-old female ob/ob mice to maintain a serum concentration of 250 pg/mL. These animals were analyzed after a 3-month treatment period.
Finally, the function of the osteoclasts of ob/ob and db/db mice was studied in vitro in an assay using hematopoietic progenitor cells from wild type, ob/ob, or db/db mice and growth factors known to induce the differentiation of these cells into functional osteoclasts. Mouse osteoclasts were generated in vitro according to protocols previously reported (Simonet et al., 1997, Cell 89, 309-319; Quinn et al., 1998, Endocrinology 139, 4424-4427). […] Medium was changed every other day. After 6 days of culture, cells were fixed in 3.7% formalin. Osteoclasts formed on plastic plates were stained for tartrate resistant acid phosphatase. Cells on dentin chips were removed by treatment with sodium hypochloride solution. Dentin chips were then stained with toluidine blue to visualize resorption pits.

wild-type (wt) mice = test: 17 β-estradiol treatment of wild-type mice; assay type: in vivo, mouse
bone marrow adipocytes = conditions: lumbar spine; cited from earlier work
C57BL/6J mice = test: GTG lesioning of the hypothalamus in wt mice; assay type: in vivo, mouse
Protocol: Wildtype (C57BL/6J) and mutant (C57BL/6J A^y/a, C57BL/6J ob/ob) mice were obtained from the Jackson laboratory and adrenal medullectomized mice from Harlan Tecklad laboratory. Dbh−/− mice were rescued as previously described (Thomas et al., 1998, Neurochem 70:2468-2476). Isoproterenol (Sigma) was injected intraperitoneally (ip) once daily for 6 weeks at 30 mg/kg (wt) or 3 mg/kg (ob/ob). Propranolol (Sigma) was added to the drinking water at a concentration of 0.5 g/l. For ICV infusion, a 28-gauge cannula (Brain infusion kit II, Alza) was implanted into the third ventricle as previously described infusing human leptin (Sigma) at 8 ng/hr or MT-II at 125 ng/hr (Phoenix Pharmaceuticals) for 28 days (see, e.g., Ducy et al., 2000, Cell 100: 197-207). The cannula was connected to an osmotic pump (Alza) placed in the dorsal subcutaneous space of the animal. For parabiosis longitudinal incisions were made in the skin and in the peritoneal cavity along one side on each mouse. Edges of the incisions were connected by suture to induce coelioanastomosis. Cross-circulation was quantified by injecting 1 ml/kg 0.25% Evans blue into the tail vein of one mouse of the parabiosed pair. After 30 min. blood was collected from both mice by retroorbital bleeding and the blood exchange rate was calculated according to standard techniques (see, e.g., Harris & Martin, 1984, Am J Physiol 247:R380-386). […] Two weeks after parabiosis a pump delivering leptin ICV in one animal of each pair was implanted. For GTG lesioning, 4-week-old C57BL/6J mice were given a single ip injection of either PBS or GTG (0.5 mg/g). For MSG lesioning, 2 day-old C57BL/6J pups were injected daily subcutaneously with either PBS or MSG (2 mg/g) for 10 days.
Next, 4-week-old wt mice were treated with gold thioglucose (GTG), a compound that destroys neurons of the VMH and of the more dorso-lateral part of the ARC although it affects other neurons (see, e.g., Debons et al., 1962, Am J Physiol 4:743-750). […] As with ob/ob mice, this HBM was due to an increase in bone formation defined by an increase in the bone formation rate (FIG. 9E). […] These findings established that neurons sensitive to GTG are involved in the control of bone mass.

C57BL/6J pups = test: MSG lesioning of the hypothalamus in mice; assay type: in vivo, mouse
Protocol: (§1) Wildtype (C57BL/6J) and mutant (C57BL/6J A^y/a, C57BL/6J ob/ob) mice were obtained from the Jackson laboratory and adrenal medullectomized mice from Harlan Tecklad laboratory. Dbh−/− mice were rescued as previously described (Thomas et al., 1998, Neurochem 70:2468-2476). Isoproterenol (Sigma) was injected intraperitoneally (ip) once daily for 6 weeks at 30 mg/kg (wt) or 3 mg/kg (ob/ob). Propranolol (Sigma) was added to the drinking water at a concentration of 0.5 g/l. For ICV infusion, a 28-gauge cannula (Brain infusion kit II, Alza) was implanted into the third ventricle as previously described infusing human leptin (Sigma) at 8 ng/hr or MT-II at 125 ng/hr (Phoenix Pharmaceuticals) for 28 days (see, e.g., Ducy et al., 2000, Cell 100: 197-207). The cannula was connected to an osmotic pump (Alza) placed in the dorsal subcutaneous space of the animal. For parabiosis longitudinal incisions were made in the skin and in the peritoneal cavity along one side on each mouse. Edges of the incisions were connected by suture to induce coelioanastomosis. Cross-circulation was quantified by injecting 1 ml/kg 0.25% Evans blue into the tail vein of one mouse of the parabiosed pair. After 30 min. blood was collected from both mice by retroorbital bleeding and the blood exchange rate was calculated according to standard techniques (see, e.g., Harris & Martin, 1984, Am J Physiol 247:R380-386). […]

[2] = system: murine primary osteoblasts; test: cAMP production in murine primary osteoblasts; assay type: cell-based, mouse; conditions: confluent cultures, 100 μM IBMX, 5 min treatment; PTH as positive control
Protocol: (§2) Primary osteoblast cultures were established as previously described (see, e.g., Ducy et al., 2000, Cell 100: 197-207) and maintained in αMEM/0.1 mg/ml ascorbic acid supplemented with 10% FBS. SaOS-2 were grown in MEM/10% FBS. For cAMP assay confluent cultures were incubated with serum free medium containing 100 μM IBMX (3-isobutyl-1-methylxanthine, Sigma) for 8 minutes before PBS, PTH(1-34) (Bachem), isoproterenol, norepinephrine, phenylephrine (Sigma) or propranolol were added for 5 min. Intracellular cAMP concentration was measured by immunoassay (R&D Systems). For gene expression analyses, primary osteoblasts were treated for 72 hours with appropriate drugs in 0.1% FBS. Hormone serum levels were quantified using immunoassays kits from Peninsula Laboratories (Insulin) or Alpco Diagnostics (leptin). Deoxypyridinoline cross-links and Creatinine were measured in morning urines using the Quidel kits. a1(I) leptin bioactivity was verified by cotransfection of 293 cells expressing ObRb with a STAT3-responsive-luc reporter construct, pSVβgal plasmid and a1(I) leptin expression vector or mock. Twenty-four hours later luciferase and β-galactosidase activities were measured. Data represents ratios of luciferase/β-galactosidase activities, and values are mean of 6 independent transfection experiments.
For a sympathetic regulation of bone formation to exist several requirements have to be fulfilled. The first one is that functional adrenergic receptors are present on osteoblasts. […] Immunohistochemical analysis of long bones from transgenic mice expressing LacZ under the control of the osteoblast-specific fragment of the a1(I) collagen promoter verified the presence of β2-adrenergic receptors on osteoblasts (FIG. 13B). No other adrenergic receptor subtype could be detected. […] Electron micrographs confirmed the presence of unmyelinated peripheral nerve axons coursing through the marrow adjacent to bone trabeculae and to osteoblasts (FIG. 13E). β-adrenergic receptors are G-coupled receptors that signal through the cAMP pathway (see, e.g., Benovic et al., 1988, Annu Rev Cell Biol 4:405-428). Thus, to assess the biologic relevance of the presence of β2-adrenergic receptors on osteoblasts, these cells were treated with isoproterenol, a β-adrenergic agonist, alone or in the presence of propranolol, a β-adrenergic receptor antagonist; with norepinephrine, the natural ligand of β-adrenergic receptors; with phenylephrine, an α-adrenergic agonist or with vehicle and measured cAMP production. As a positive control, parathyroid hormone (PTH) that binds to another G-coupled receptor present in osteoblasts was used (Gardella & Juppner, 2001, Trends Endocrinol Metab 12:210-217.). […] These effects were abolished by propranolol treatment. […]

[3] = system: human SaOS-2 osteoblastic cells; test: cAMP production in human SaOS-2 osteoblastic cells; assay type: cell-based; conditions: SaOS-2, 100 μM IBMX, 5 min treatment
Protocol: as §2
For a sympathetic regulation of bone formation to exist several requirements have to be fulfilled. The first one is that functional adrenergic receptors are present on osteoblasts. […] No other adrenergic receptor subtype could be detected. […] Thus, to assess the biologic relevance of the presence of β2-adrenergic receptors on osteoblasts, these cells were treated with isoproterenol, a β-adrenergic agonist, alone or in the presence of propranolol, a β-adrenergic receptor antagonist; with norepinephrine, the natural ligand of β-adrenergic receptors; with phenylephrine, an α-adrenergic agonist or with vehicle and measured cAMP production. […]

ovariectomized rat = conditions: cited from earlier work
ob/ob mice [4] = test: ICV infusion of MTII in ob/ob mice; assay type: in vivo, mouse; conditions: ICV 125 ng/hr, 28 days
Protocol: as §1

[5] = system: primary osteoblasts isolated from wild-type mice; test: Leptin signaling in primary osteoblast cultures (Stat3 phosphorylation, immediate early genes, matrix synthesis and mineralization); assay type: cell-based, mouse
Protocol: Expression of leptin in osteoblasts was studied in subconfluent primary osteoblast cultures from wild-type mice which were maintained for 4 days in 10% FBS mineralization medium and then subsequently switched to 0.5% for 2 days and replaced daily. Medium was replaced 2 hours before a 20 min treatment with 80 ng/mL leptin (Sigma) or 40 ng/mL Oncostatin M (R&D Diagnostics) or vehicle. RNA extractions were performed using Triazol (Gibco). Northern blots were performed with 15 μg of total RNA according to methods well known in the art.
To determine whether or not leptin could transduce its signal in osteoblasts, serum-starved primary osteoblasts isolated from wild-type mice were treated with leptin. Primary osteoblast cultures from calvaria of newborn wild-type or db/db mice were established as previously described (Ducy et al., 1999, Genes Dev 13, 1025-1036) and maintained in mineralization medium (αMEMI 0.1 mg/mL ascorbic acid; 5 mM […]) supplemented with 10% […]. Cultures of mutant cells were maintained in this medium for 15 days before analysis. Cultures derived from wild-type mice were maintained for 10 days in this medium then the percentage of serum was reduced to 0.5% and the medium supplemented with 1.2 μg/mL leptin (Sigma) or vehicle for 5 days.
The phosphorylation of Stat3, a downstream effector of leptin signaling in its target cells (Tartaglia et al., 1995, Cell 83, 1263-1271; Baumann et al., 1996, Proc Natl Acad Sci USA 93, 8374-8378; Ghilardi et al., 1996, Proc Natl Acad Sci USA 93, 6231-6235; Vaisse et al., 1996, Nat Genet 14, 95-97), was monitored, in addition to the expression of two immediate early genes whose transcription is increased following leptin treatment of target cells (Elmquist et al., 1997, Endocrinology 138, 839-842). As a positive control oncostatin-M that induces Stat3 phosphorylation and activates the expression of the same two immediate early genes in osteoblasts (Levy et al., 1996, Endocrinology 137, 1159-1165) was utilized. Western blot analysis was performed to determine Stat3 phosphorylation as follows. Cells were lysed, protein extracts were separated on a 7.5% SDS-PAGE and blotted on nitrocellulose (Biorad) for immunoblotting assay by methods well known in the art. Analysis of Stat3 phosphorylation was performed using the PhosphoPlus Stat3 (Tyr7O5) Antibody kit (New England Biolabs) according to the manufacturer's instructions.
Finally, the effect of a long-term leptin treatment of primary osteoblast cultures from wild-type mice on extracellular matrix synthesis and bone matrix mineralization was determined. The presence of a collagen-rich extracellular matrix and of mineralization nodules was assessed by whole-mount staining of the cultures by the van Gieson and von Kossa reagent, respectively. No difference was observed when assessing collagen synthesis or mineralization nodule formation between control and leptin-treated cultures (FIG. 5E).

[6] = estradiol-treated ob/ob mice, end of treatment period
[7] = female ob/ob mice, 3-month treatment

For `C[C@]12CC[C@@H]3c4ccc(O)cc4CC[C@H]3[C@@H]1CC[C@@H]2O` [17 β-estradiol], the “hypogonadism, as judged by the aspect of uteri and levels of estradiol in blood” value (ob/ob mice [1]; 2-month-old female ob/ob mice, subcutaneous pellets, serum 250 pg/mL, 3-month treatment) was “corrected their hypogonadism”, the “increase in bone volume compared to estradiol-treated wild-type mice” value (ob/ob mice [1]; [6]) was 50% and the “increase in bone volume compared to untreated wild-type mice” value (ob/ob mice [1]; [6]) was 3 fold. The “high bone mass phenotype compared to placebo treated ob/ob mice” value (ob/ob mice [1]; [7]) was “further increase”, the osteoclast number (ob/ob mice [1]; [7]) was “normalization” and the “bone trabeculae (histological analysis of vertebrae)” value (wild-type (wt) mice) was “significant increase”.

For `COC(=O)COc1ccc(CC(C)NCC(O)c2cccc(Cl)c2)cc1` (stereo not drawn) [BRL 35135], the “sizes of bone marrow adipocytes” value (bone marrow adipocytes) is given as “reduce”.

For `OC[C@@H](O)[C@@H](O)[C@H](O)[C@@H](O)C=S.[Au]` [GTG, gold thioglucose], the “VMH neurons expressing SF1 (immunohistochemistry)” value (C57BL/6J mice; 4-week-old wt mice, single ip injection 0.5 mg/g) was “marked perturbation”, the bone formation rate (C57BL/6J mice; 12 week-old GTG-treated mice) was “increase” and the “bone mass (bone histologic analysis)” value (C57BL/6J mice; 12 week-old GTG-treated mice) was “HBM whose severity was nearly identical to that of ob/ob mice”. The “urinary elimination of deoxypyridinoline (dpd) and osteoclast numbers” value (C57BL/6J mice; GTG-treated mice) was “normal”.

In the case of `N[C@@H](CCC(=O)O)C(=O)[O-].[Na+]` [MSG, monosodium glutamate], the “ARC structures (neurons synthesizing NPY)” value (C57BL/6J pups; newborn pups, 2 mg/g subcutaneously daily for 10 days) is reported as “markedly affected” and the “bone mass (bone volume, histology)” value (C57BL/6J pups; twelve week-old MSG-treated mice) is reported as “normal”.

With `NC[C@H](O)c1ccc(O)c(O)c1` [norepinephrine] the cAMP production [2] was “increased” and the cAMP production [3] was “induced”.

For `CNC[C@H](O)c1cccc(O)c1` [phenylephrine], the cAMP production [2] was “not”.

For `CC(C)(C)NCC(O)c1ccc(O)c(CO)c1` (stereo not drawn) [salbutamol], the effects in bone (ovariectomized rat) is listed as “Anabolic effects”.

With MTII the body weight (ob/ob mice [4]) was “significantly decreased” and the bone mass (ob/ob mice [4]) was “did not affect”.

B1: Oncostatin-M: positive control that induces Stat3 phosphorylation in osteoblasts (protein, UniProt P13725 26-221, looked up)
Oncostatin-M: AAIGSCSKEYRVLLGQLQKQTDLMQDTSRLLDPYIRIQGLDVPKLREHCRERPGAFPSEETLRGLGRRGFLQTLNATLGCVLHRLADLEQRLPKAQDLERSGLNIEDLEKLQMARPNILGLRNNIYCMAQLLDNSDTAEPTKAGRGASQPPTPTPASDAFQRKLEGCRFLHGYHRFMHSVGRVFSKWGESPNRSRR
With B1 the “expression of Tis11 and c-fos (Northern analysis)” value ([5]; primary osteoblasts, 20 min treatment) was “quickly and transiently activated” and the “Stat3 phosphorylation (Western blot)” value ([5]; serum-starved primary osteoblasts, 20 min, leptin 80 ng/mL, Oncostatin M 40 ng/mL) was “did induce”.

Reference: patent US20060165683A1, “Methods and compositions for control of bone formation via modulation of sympathetic tone” (priority 2001, published 2006)
